Source: US6194143A, “Substrates for human cytomegalovirus protease” (Boehringer Ingelheim (Canada) Ltd., priority 1998, dated 2001)
Square brackets hold non-standard residues; d marks the D form. Peptide text beside a SMILES is read from it. * marks the point of attachment. Tyr(3-NO2) = N[C@@H](Cc1ccc(O)c([N+](=O)[O-])c1)C(=O)O; AMC = Cc1cc(=O)oc2cc(N*)ccc12; Tle = CC(C)(C)[C@H](N)C(=O)O; 2Abz = Nc1ccccc1C(=O)O

What was measured:
HCMV protease [1] = target: T1, HCMV protease (Human cytomegalovirus, UniProt P16753); test: Inhibitory activity on HCMV protease (IC50); type: biochemical
T1 construct: UL80 gene from HCMV strain AD169, aa 1-256; made in house
Method: The substrate of formula 1 was used to implement a 100 nM HCMV protease assay for routine screening of inhibitors. However rapid progress in the structure-activity relationship (SAR) studies eventually required a reduction of the enzyme concentration in order to differentiate between potent compounds. Indeed an IC50 value cannot be lower than half the enzyme concentration in the assay. Reducing the enzyme therefore permits accurate determination of the potency of active inhibitors.
The large reduction in Km was responsible for this substantial increase in activity and reflected the anticipated improvement in binding. The inhibitory activity of the N-terminal product ABz-Tbg-Tbg-Asn(Me)2 -Ala-OH was determined to establish if it could interfere with the course of the reaction.

HCMV protease [2] = target: T1, HCMV protease; test: Mode of inhibition by Dixon-plot analysis with substrate 2; type: biochemical; conditions: Dixon-plot of initial rate of hydrolysis at different substrate 2 and inhibitor concentrations; substrate 0.4 to 2.5 Km
Text: FIG. 1 illustrates the inhibitory effect of a peptide inhibitor on HCMV protease at various concentrations of an improved substrate of this application.
The convenient use of fluorescence in this experiment was possible since a range of substrate concentrations from 0.4 to 2.5 Km was permitted. Substrate 1 could not be used in this application since its Km value is well above the inner filter limit.

[3] = Stability of 10 mM DMSO stock solutions at 4° C.; type: physicochemical; conditions: 10 mM in DMSO, stored at 4° C.
Method: (§1) Stock solutions (10 mM) in DMSO of the compounds prepared in examples 2, 3, 4, 5 and 6 were stored at 4° C. […] Aliquoted samples of HCMV protease 50 μM (1.4 mg/ml) were kept at -80° C. in storing buffer without detectable loss of activity over an extended period of more than a year. The calculated molecular mass of wild-type HCMV protease was 28042 Da. The concentration of enzyme on which the calculations of the turnover number, kcat, and the specificity constant, kcat /Km, were derived was expressed in terms of total monomer concentration.

Solubility of substrate = type: physicochemical
HCMV protease [4] = target: T1, HCMV protease; test: HCMV protease fluorometric assay of substrate cleavage; type: biochemical; conditions: for kcat/Km, fold greater than for the substrate of formula 1 (unoptimized substrate): compared with substrate of formula 1
Method: (§2) Preparation of recombinant wild-type HCMV protease PCR amplified HCMV protease gene from genomic DNA (UL80 gene from HCMV strain AD169, aa 1-256) was cloned in the NdeI/BamHl restriction sites of the plasmid vector pET-17b and expressed in Escherichia Coli strain BL21(DE3)pLYSs. Following expression by induction with IPTG, cells were harvested and resuspended in lysis buffer (50 mM Tris/HCl pH 8.0, 1 mM EDTA, 1 mM DTT, 25 mM NaCl, and 1 mM PMSF) and sonicated for complete lysis and DNA breakage. Protease inclusion bodies were harvested by centrifugation. The harvested material was washed twice in lysis buffer containing 0.1% nonaethylene glycol octylphenyl ether (NP-40, Sigma Chemical Co.). Solubilization and denaturation of the harvested material were performed by resuspending the inclusion bodies in 100 mM Tris/HCl pH 8.0, 1 mM EDTA, 100 mM DTT, 50 mM NaCl, and 7 M urea and incubating at 37° C. for 2 h. After centrifugation to eliminate insoluble matter, the supernatant was extensively dialyzed in 50 mM MES pH 5.0, 0.1 mM EDTA, 10 mM DTT, and 7 M urea for cation exchange chromatography on Resource S column. The resulting pool of protease-containing fractions was then dialyzed in 25 mM Tris/HCl pH 7.8, 1 mM EDTA, and 1 M urea and diluted to ≈100 μg/ml to which 0.2 mM oxidized glutathione and 2 mM reduced glutathione were added. Incubation was performed overnight at 4° C. with gentle shaking and renaturation was then completed by extensive dialysis in 25 mM Tris/HCl pH 7.8, 1 mM EDTA, 1 mM DTT, and 100 mM NaCl followed by dialysis in storing buffer (20 mM acetate pH 5.0, 0.1 mM EDTA, 1 mM DTT, and 50 mM NaCl) before concentration of the sample to give the desired protease.
Stock solutions (10 mM) in DMSO of the compounds prepared in examples 2, 3, 4, 5 and 6 were stored at 4° C. […] Aliquoted samples of HCMV protease 50 μM (1.4 mg/ml) were kept at -80° C. in storing buffer without detectable loss of activity over an extended period of more than a year. The calculated molecular mass of wild-type HCMV protease was 28042 Da. […]

HCMV protease [5] = conditions: prior literature reports; cited from earlier work
HCMV protease [6] = target: T1, HCMV protease; type: biochemical; conditions: for Km / kcat / kcat/KM (specificity constant): 200-500 nM HCMV protease, determined by HPLC
Method: as §2, §1
HPLC analysis. Specificity constant, kcat /Km, and individual parameters kcat & Km for the peptide substrate of Example 2 were determined by HPLC monitoring of the initial rate of appearance of the N-terminus cleavage product at various substrate concentrations. Incubation buffer contained 50 mM Tris/HCl pH 8, 0.5 M Na2 SO4, 50 mM NaCl, 0.1 mM EDTA, 1 mM TCEP, 3% DMSO v/v, & 0.05% w/v casein to which 20-500 μM substrate was added. Following equilibration at 30° C., the reactions were initiated by addition of 50 nM HCMV protease (total monomer concentration) from a 2.5 μM stock solution in assay buffer and quenched at regular intervals with 1% TFA up to ≈25% total hydrolysis. The aliquots were injected on a C8 reversed-phase column using a linear gradient of acetonitrile in aqueous 3mM SDS containing 0.05% H3 PO4 (22 to 28% acetonitrile at 2 min, to 30% at 4 min, to 50% at 6 min at a constant flow rate of 4 ml/min). A calibration curve of the N-terminus product was used to estimate the extent of the conversion (retention time=2.7 min). The data was fitted to the non-linear regression analysis of the Michaelis-Menten equation by the kinetic software GRAFIT (Grafit, Erithacus Software Ltd, 1989-1992, Version 3.0, Leatherbarrow, R. J., London, U.K.). A similar protocol was adopted for the peptide substrates of Examples 5 and 6. In this case the enzyme concentration used was respectively 500 nM and 200 nM. The HPLC gradient was 25 to 38% acetonitrile at 11 min, to 100% at 13 min at a constant flow rate of 4 ml/min.

T1 sequence (P16753 1-256): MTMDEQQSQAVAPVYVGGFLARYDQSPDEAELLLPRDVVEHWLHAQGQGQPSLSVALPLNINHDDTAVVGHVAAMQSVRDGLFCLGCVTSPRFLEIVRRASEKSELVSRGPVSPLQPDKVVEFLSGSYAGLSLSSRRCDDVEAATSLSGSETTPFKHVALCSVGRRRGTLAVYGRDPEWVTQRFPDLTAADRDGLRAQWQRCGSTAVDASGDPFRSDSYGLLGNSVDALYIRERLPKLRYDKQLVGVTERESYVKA

C[C@H](NC(=O)[C@H](CC(=O)N(C)C)NC(=O)[C@@H](NC(=O)[C@@H](NC(=O)c1ccccc1N)C(C)(C)C)C(C)(C)C)C(=O)O [ABz-Tbg-Tbg-Asn(Me)2 -Ala-OH] (H-[2Abz][Tle][Tle]D(NMe2)A-OH)
IC50 (HCMV protease [1]): > 75 µM

CC(NC(=O)[C@H](CC(=O)N(C)C)NC(=O)[C@@H](NC(=O)CC(C)(C)C)C(C)(C)C)C(=O)C(=O)NCc1ccccc1 (stereo partly drawn) [DATbg-Tbg-Asn(Me2)-Ala-CONHCH2Ph]
mode of inhibition (HCMV protease [2]): competitive

CC(C)C[C@H](NC(=O)[C@H](CCCNC(=N)N)NC(=O)[C@H](CO)NC(=O)[C@H](CO)NC(=O)[C@H](C)NC(=O)[C@H](CC(N)=O)NC(=O)[C@@H](NC(=O)[C@@H](NC(=O)c1ccccc1N)C(C)C)C(C)C)C(=O)N[C@@H](Cc1ccc(O)c([N+](=O)[O-])c1)C(=O)N[C@@H](CCCNC(=N)N)C(=O)O [Substrate 1] (H-[2Abz]VVNASSRL[Tyr(3-NO2)]R-OH)
stability of compound in stock solution [3]: stable for several weeks | solubility (Solubility of substrate): limited solubility

CC(C)C[C@H](NC(=O)[C@H](CCCNC(=N)N)NC(=O)[C@H](CO)NC(=O)[C@H](CO)NC(=O)[C@H](C)NC(=O)[C@H](CC(=O)N(C)C)NC(=O)[C@@H](NC(=O)[C@@H](NC(=O)c1ccccc1N)C(C)(C)C)C(C)(C)C)C(=O)N[C@@H](Cc1ccc(O)c([N+](=O)[O-])c1)C(=O)N[C@@H](CCCNC(=N)N)C(=O)O [Substrate 2, ABz-Tbg-Tbg-Asn(Me)2 -Ala-Ser-Ser-Arg-Leu-Tyr(3-NO2)-Arg-OH] (H-[2Abz][Tle][Tle]D(NMe2)ASSRL[Tyr(3-NO2)]R-OH)
kcat/Km, fold greater than for the substrate of formula 1 (unoptimized substrate) (HCMV protease [4]): 60 fold | stability of compound in stock solution [3]: stable for several weeks

CC(=O)N[C@H](C(=O)N[C@H](C(=O)N[C@@H](CC(=O)N(C)C)C(=O)N[C@@H](C)C(=O)Nc1ccc2c(C)cc(=O)oc2c1)C(C)(C)C)C(C)(C)C [Substrate 3, N-Acetyl-Tbg-Tbg-Asn(Me)2 -Ala-AMC] (Ac-[Tle][Tle]D(NMe2)A-{AMC})
kcat/Km, fold greater than for the substrate of formula 1 (unoptimized substrate) (HCMV protease [4]): 10 fold | kcat/Km, fold smaller than the substrate of formula 2 (HCMV protease [4]; compared with substrate of formula 2): 6 fold | stability of compound in stock solution [3]: stable for several weeks

ABz-GVVNA-SSRLAY(3-NO2)G
Km (HCMV protease [5]): 134 µM | kcat (HCMV protease [5]): 0.37 s⁻¹ | kcat/KM (HCMV protease [5]): 2750 M⁻¹ s⁻¹

DABCYL-RGVVNA-SSRLA-EDANS
kcat/KM (HCMV protease [5]): 796 M⁻¹ s⁻¹

DABCYL-RRVVNA-S-Aba-RLD(EDANS)-NH2
Km (HCMV protease [5]): 3 µM

Y(3-NO2)GVVNA-SSRLA-ABz-K
kcat/KM (HCMV protease [5]): 3167 M⁻¹ s⁻¹

d-Biotin-Arg-Gly-Tbg-Tbg-Asn (Me) 2 -Ala-Ser-Ser-Arg-Leu-Ala-Tyr-NH2 [Substrate 5]
Km (HCMV protease [6]): 19 µM | kcat (HCMV protease [6]): 0.045 s⁻¹ | kcat/KM (specificity constant) (HCMV protease [6]): 2370 M⁻¹ s⁻¹

d-Biotin-Arg-Gly-Tbg-Tbg-Asn(Me)2 -Ala-Ser-Ser-Arg-Leu-Ala-Tyr(^125,)-NH2 [Substrate 13a]
Km (HCMV protease [6]): 19 µM | kcat (HCMV protease [6]): 0.045 s⁻¹ | kcat/KM (specificity constant) (HCMV protease [6]): 2370 M⁻¹ s⁻¹ | kcat/KM, fold greater compared to the substrate of formula 12a (HCMV protease [6]; as measured by HPLC): 12 fold

d-Biotin-Arg-Gly-Val-Val-Asn-Ala-Ser-Ser-Arg-Leu-Ala-Tyr-NH2 [Substrate 4]
Km (HCMV protease [6]): 422 µM | kcat (HCMV protease [6]): 0.086 s⁻¹ | kcat/KM (specificity constant) (HCMV protease [6]): 205 M⁻¹ s⁻¹
